Measurements published in ChEMBL document CHEMBL5223081 (J Med Chem, 2021).
One block for each compound: values may come before it.

Assays:
[1] = Inhibition of human PDE5 derived from platelets by scintillation counter analysis
[2] = species: Homo sapiens; experiment: Selectivity index, ratio of Ki for human A2A receptor to Ki for human A3 receptor assessed as fold change
[3] = species: Homo sapiens; experiment: Selectivity index, ratio of Ki for human A1 receptor to Ki for human A3 receptor assessed as fold change
[4] = Aqueous solubility of compound; assay type: physicochemical
[5] = molecular target: T1, Palmitoleoyl-protein carboxylesterase NOTUM (Homo sapiens, UniProt Q6P988); experiment: Inhibition of notum (unknown origin)
T1 sequence (Q6P988 whole entry): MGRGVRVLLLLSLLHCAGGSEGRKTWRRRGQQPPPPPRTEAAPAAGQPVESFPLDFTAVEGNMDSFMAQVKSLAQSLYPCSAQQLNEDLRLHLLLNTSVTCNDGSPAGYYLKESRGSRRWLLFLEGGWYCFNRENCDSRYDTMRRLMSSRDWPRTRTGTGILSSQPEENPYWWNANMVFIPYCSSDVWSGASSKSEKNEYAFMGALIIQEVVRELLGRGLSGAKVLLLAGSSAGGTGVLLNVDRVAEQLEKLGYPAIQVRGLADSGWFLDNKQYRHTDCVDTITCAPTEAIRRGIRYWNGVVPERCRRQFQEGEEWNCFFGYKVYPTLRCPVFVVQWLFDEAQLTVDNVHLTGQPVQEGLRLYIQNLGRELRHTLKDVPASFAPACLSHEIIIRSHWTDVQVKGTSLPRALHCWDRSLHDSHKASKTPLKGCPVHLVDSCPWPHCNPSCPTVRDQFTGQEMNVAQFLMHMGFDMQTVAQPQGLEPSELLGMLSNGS

[6] = Inhibition of Glycogen phosphorylase (unknown origin); set-up: species or system Homo sapiens
[7] = Inhibition of phosphodiesterase (unknown origin); set-up: species or system Homo sapiens
[8] = Inhibition of ryanodine receptor (unknown origin); set-up: species or system Homo sapiens
[9] = Inhibition of bile export protein (unknown origin); set-up: species or system Homo sapiens
[10] = molecular target: GABA-A receptor; anion channel; experiment: Inhibition of GABAA receptors (unknown origin); assay type: protein-complex assay, Homo sapiens
[11] = molecular target: T2, Guanine deaminase (Homo sapiens, UniProt Q9Y2T3); experiment: Inhibition of guanine deaminase (unknown origin)
T2 sequence (Q9Y2T3 whole entry): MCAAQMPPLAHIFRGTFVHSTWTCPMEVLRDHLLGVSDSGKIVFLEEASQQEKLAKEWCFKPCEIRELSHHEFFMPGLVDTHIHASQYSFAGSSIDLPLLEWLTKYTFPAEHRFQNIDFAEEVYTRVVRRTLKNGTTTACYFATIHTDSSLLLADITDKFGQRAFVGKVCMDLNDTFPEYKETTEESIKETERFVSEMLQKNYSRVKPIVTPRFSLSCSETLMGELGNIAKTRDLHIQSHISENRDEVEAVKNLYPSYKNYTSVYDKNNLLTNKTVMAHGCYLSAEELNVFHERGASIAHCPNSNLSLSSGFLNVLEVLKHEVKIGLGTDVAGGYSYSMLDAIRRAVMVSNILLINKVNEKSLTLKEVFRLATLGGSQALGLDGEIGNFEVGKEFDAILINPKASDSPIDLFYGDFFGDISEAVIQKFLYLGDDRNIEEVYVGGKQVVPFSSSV

[12] = Inhibition of PI3-kinase (unknown origin); set-up: species or system Homo sapiens
[13] = molecular target: Nuclear receptor subfamily 2 group E member 1 (Homo sapiens, UniProt Q9Y466); experiment: Inhibition of tlx (unknown origin)
[14] = Inhibition of human glycogen phosphorylase
[15] = Inhibition of human glycogen phosphorylase in presence of 0.2 mM of AMP
[16] = species: Homo sapiens; experiment: Selectivity index, ratio of antagonist activity at A1 receptor to antagonist activity at A2 receptor
[17] = Inhibition of PDE2 derived from bovine heart by scintillation counter analysis; set-up: species or system Bos taurus
[18] = molecular target: T3, Adenosine receptor A3 (Homo sapiens, UniProt P0DMS8); experiment: Binding affinity to human A3 adenosine receptor assessed as inhibition constant
T3 sequence (P0DMS8 whole entry): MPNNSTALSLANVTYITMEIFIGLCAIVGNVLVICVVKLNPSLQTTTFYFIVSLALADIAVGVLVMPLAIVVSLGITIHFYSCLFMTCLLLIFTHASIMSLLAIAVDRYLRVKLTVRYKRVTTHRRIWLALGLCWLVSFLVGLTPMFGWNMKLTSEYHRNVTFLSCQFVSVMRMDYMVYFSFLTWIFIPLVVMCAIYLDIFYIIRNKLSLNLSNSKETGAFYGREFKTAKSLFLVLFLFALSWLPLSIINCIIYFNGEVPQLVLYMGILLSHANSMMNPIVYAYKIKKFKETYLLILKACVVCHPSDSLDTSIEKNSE

[19] = species: Homo sapiens; experiment: Selectivity index, ratio of Ki for human A2 receptor to Ki for A1 receptor assessed as fold change

Nuclear receptor subfamily 2 group E member 1, sequence (Q9Y466 whole entry): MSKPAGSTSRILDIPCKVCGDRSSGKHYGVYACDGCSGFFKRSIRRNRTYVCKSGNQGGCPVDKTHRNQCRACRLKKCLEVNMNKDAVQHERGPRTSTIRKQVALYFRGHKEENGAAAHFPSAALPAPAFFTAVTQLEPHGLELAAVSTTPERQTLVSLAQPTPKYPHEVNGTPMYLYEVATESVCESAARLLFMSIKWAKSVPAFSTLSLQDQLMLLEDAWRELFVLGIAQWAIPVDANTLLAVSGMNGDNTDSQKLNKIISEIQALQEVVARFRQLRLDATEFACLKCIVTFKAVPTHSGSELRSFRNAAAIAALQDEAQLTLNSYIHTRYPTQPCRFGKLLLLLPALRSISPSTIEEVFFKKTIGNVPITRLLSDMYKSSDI

SMILES: CCCc1nn(C)c2c(=O)[nH]c(-c3cc(S(=O)(=O)N4CCN(C)CC4)ccc3OCC)nc12
IC50 [1]: 0.01 µM

Ratio Ki [2]: > 400
Ratio Ki [3]: 160
SMILES: CCCCn1c(=O)c2c(ncn2[C@@H]2O[C@H](C(=O)NC)[C@@H](O)[C@H]2O)n(CCCC)c1=O

solubility [4]: < 10 µg/mL
SMILES: CCCn1c(=O)c2c(nc(/C=C/c3ccc(OC)c(OC)c3)n2C)n(CCC)c1=O

solubility [4]: > 20 µM
SMILES: Cn1c(=O)c2[nH]c(-c3ccc(S(=O)(=O)O)cc3)nc2n(C)c1=O

IC50 [5]: 100 µM
pKi [6]: 4
pIC50 [7]: < 4
pEC50 [8]: < 4
pIC50 [9]: 4
pKi [10]: < 4
Ki [11]: 10 µM
pIC50 [12]: <= 4.1
IC50 [13]: 7.94 µM
IC50 [14]: 92 µM
IC50 [15]: 360 µM
SMILES: Cn1c(=O)c2c(ncn2C)n(C)c1=O [CAFFEINE]

Ratio [16]: 10
SMILES: CCCn1cnc2c1c(=O)n(C)c(=O)n2C

SMILES: COc1ccc(Cc2nc(O)c3c(C)nc([C@@H](CCCc4ccccc4)[C@@H](C)O)n3n2)cc1OC
IC50 [17]: 0.0047 µM

Ki [18]: 0.000433 µM
SMILES: CC[C@@H]1CN2C(=O)N(C)c3nc(-c4cc(Cl)cc(Cl)c4Cl)[nH]c3C2=N1

Ratio Ki [19]: 400
SMILES: CCCn1c(=O)c2nc(C3CC4CC3C3OC43)[nH]c2n(CCC)c1=O (stereo unspecified)

Ratio Ki [19]: 190
SMILES: CCCn1c(=O)c2nc(-c3ccc(OCC(N)=O)cc3O)[nH]c2n(CCC)c1=O
